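Where inhibition never reached the appropriate level, the endpoint shown equals the highest concentration tested. Otherwise, values were interpolated linearly from a five-concentration, 48-hour dose response in 96-well plates. GI50 = concentration required for 50% inhibition of growth. The concentration for full growth arrest is given as TGI.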
How the values were obtained:
Experiment in all cases: NCI anticancer screen, dose series, 48 h
UACC-62 melanoma = tested on: UACC-62 melanoma
HT29 colon = tested on: HT29 colon
SN12C renal = tested on: SN12C renal
HCT-15 colon = tested on: HCT-15 colon
UACC-257 melanoma = tested on: UACC-257 melanoma
PC-3 prostate = tested on: PC-3 prostate
SR leukemia = tested on: SR leukemia
CAKI-1 renal = tested on: CAKI-1 renal
NCI-H522 lung = tested on: NCI-H522 lung
HCC-2998 colon = tested on: HCC-2998 colon

Compound | TGI (UACC-62 melanoma) | TGI (HT29 colon) | TGI (SN12C renal) | TGI (HCT-15 colon) | TGI (UACC-257 melanoma) | TGI (PC-3 prostate) | TGI (SR leukemia) | TGI (CAKI-1 renal) | TGI (NCI-H522 lung) | TGI (HCC-2998 colon) | GI50 (UACC-62 melanoma) | GI50 (HT29 colon) | GI50 (SN12C renal) | GI50 (HCC-2998 colon) | GI50 (HCT-15 colon) | GI50 (UACC-257 melanoma) | GI50 (PC-3 prostate) | GI50 (SR leukemia) | GI50 (CAKI-1 renal) | GI50 (NCI-H522 lung)
Cc1cc2c(cc1-c1cc3c(cc1C)C(C(C)C)=C(O)C(=O)/C3=C\Nc1nc(-c3ccccc3)cs1)/C(=C/Nc1nc(-c3ccccc3)cs1)C(=O)C(O)=C2C(C)C | 35.7 µM | 50.2 µM | 48.4 µM | 58.4 µM | 47 µM | 37.3 µM | > 100 µM | > 100 µM |  |  |  |  |  |  |  |  |  |  |  | 
CCOC(=O)c1ccc(-c2cc(C)[nH]n2)[nH]1 | > 100 µM | > 100 µM | > 100 µM | > 100 µM | > 100 µM | > 100 µM |  | > 100 µM | > 100 µM |  |  |  |  |  |  |  |  |  |  | 
CC1(C)CCC[C@]2(C)[C@@H]1CC[C@@]13O[C@@H]1C1=C(CO)C(=O)O[C@]14O[C@@H]4[C@@H]23 | 37.7 µM | 26.2 µM | 20.5 µM | 37.4 µM | 35.8 µM | 25.5 µM | > 100 µM | 36.4 µM | 22 µM | 40.5 µM |  |  |  |  |  |  |  |  |  | 
COCn1c(C)c(C)c2c(=O)oc(=O)[nH]c21 | > 100 µM | > 100 µM | > 100 µM | > 100 µM | > 100 µM | > 100 µM | > 100 µM | > 100 µM | > 100 µM | > 100 µM |  |  |  |  |  |  |  |  |  | 
COc1c(-c2cc(C)c(Cl)c(=O)[nH]2)c(O)c(OC)c2occc12 | > 100 µM | > 100 µM | > 100 µM | > 100 µM | > 100 µM | > 100 µM | > 100 µM | > 100 µM | > 100 µM | > 100 µM |  |  |  |  |  |  |  |  |  | 
CSC1=Nc2ccccc2-c2nc(-c3ccccc3)cc(-c3ccccc3)c2C1 | 60.5 µM | > 100 µM | > 100 µM | > 100 µM | > 100 µM | > 100 µM | > 100 µM | 30 µM | 40.1 µM | > 100 µM |  |  |  |  |  |  |  |  |  | 
CCCC1NC(C#N)(C#N)C(CCC)NC1(C#N)C#N (stereo not given) | > 100 µM | > 55.7 µM | > 37 µM | > 39.2 µM | > 100 µM | > 88.7 µM | 1.49 µM | > 50.4 µM | 1.51 µM | > 58.2 µM |  |  |  |  |  |  |  |  |  | 
CCOC(=O)c1c(SC(=O)c2cc(OC)c(OC)c(OC)c2)n(-c2ccccc2)c(=S)n(-c2ccccc2)c1=O | > 100 µM | > 100 µM | > 100 µM | > 100 µM | > 100 µM | > 100 µM | > 100 µM | > 100 µM | > 100 µM | > 100 µM |  |  |  |  |  |  |  |  |  | 
c1ccc2c(c1)c1c(n2CCOCCN2CCCCC2)CCCC1 | 28.7 µM | 24.6 µM | 27.4 µM | 27.7 µM |  | 22.2 µM | 36 µM |  |  | 23.6 µM |  |  |  |  |  |  |  |  |  | 
O=C1Cc2c(-c3ccc(Cl)cc3)cc(-c3ccccc3)nc2-c2ccccc2N1 | > 58.9 µM | > 42.8 µM | 25 µM | > 44.8 µM | > 100 µM | > 100 µM | > 100 µM | 19.4 µM | 32.9 µM | 24.2 µM |  |  |  |  |  |  |  |  |  | 
COc1cc2c(cc1OCCCC(=O)Nc1cc(C(=O)Nc3cc(C(=O)Nc4cc(C(=O)NCCCN(C)C)n(C)c4)n(C)c3)n(C)c1)N=C[C@@H]1CCCN1C2=O | 6.53 µM | 4.1 µM | 2.63 µM | 3.86 µM | 4.09 µM | 6 µM |  | 1.26 µM | 0.427 µM | 28.2 µM |  |  |  |  |  |  |  |  |  | 
N#CCCNCCN(CCN(C(=O)Nc1ccccc1)c1ccccc1)C(=O)Nc1ccccc1 | > 100 µM | > 100 µM | > 100 µM | > 100 µM | 32.1 µM | > 100 µM | > 100 µM |  | 54.4 µM | 36 µM |  |  |  |  |  |  |  |  |  | 
C(=N\Nc1ncc(-c2cc3cc4c(cc3o2)OCO4)s1)/c1c[nH]c2ccccc12 | 3.72 µM | > 100 µM | 3.98 µM | 3.25 µM | 7.77 µM | 6.2 µM | > 100 µM | 3.21 µM |  | 5.13 µM | 1.75 µM | 3.32 µM | 0.374 µM | 2.06 µM | 1.14 µM | 2.57 µM | 0.519 µM | 0.912 µM | 1.18 µM | 
CCSc1ncnc2c(C3OC(CO)C(O)C3O)nsc12 (stereo not given) |  | > 100 µM | > 100 µM | > 100 µM |  | > 100 µM | > 100 µM | > 100 µM |  | > 100 µM |  |  |  |  |  |  |  |  |  | 
Cn1ccnc1CCc1ccc(F)cc1F | > 100 µM | > 100 µM | > 100 µM | > 100 µM |  | > 100 µM | > 100 µM |  | > 100 µM | > 100 µM |  |  |  |  |  |  |  |  |  | 
Cc1cc(S(=O)(=O)Nc2nc3ccsc3c(=O)n2N)c(S)cc1Cl | > 100 µM | > 100 µM | > 100 µM | > 100 µM | > 100 µM | > 100 µM |  | > 100 µM | > 100 µM | > 100 µM |  |  |  |  |  |  |  |  |  | 
Cc1cn(C2CC(O)C(CO)C2C)c(=O)[nH]c1=O (stereo not given) | > 100 µM | > 100 µM | > 100 µM | > 100 µM | > 100 µM |  |  |  | > 100 µM | > 100 µM |  |  |  |  |  |  |  |  |  | 
COC(c1ccsc1)C(C#N)(C#N)N=Cc1ccsc1 (stereo not given) | 28.7 µM | 25.1 µM | 30.8 µM | 25.9 µM | 29.6 µM | 27.5 µM |  | 19.2 µM | 21.3 µM | 34 µM |  |  |  |  |  |  |  |  |  | 
COC12C=C/C(=C(/C(=O)OCc3ccncn3)C(=O)CCCCCCCCC3(OC)C=C/C(=C(/C(=O)OCc4ccncn4)C(=O)CCCCCCCC1)O3)O2 |  | 0.689 µM | 1.12 µM | 1.12 µM | 0.882 µM | 1.09 µM | > 100 µM | 2.21 µM | 0.545 µM | 0.45 µM |  | 0.266 µM | 0.297 µM | 0.225 µM | 0.278 µM | 0.261 µM | 0.305 µM | 0.296 µM | 0.349 µM | 0.207 µM
CC(=O)NC1(C)CCC(C(C)(C)NC(C)=O)CC1 (stereo not given) | > 100 µM | > 100 µM | > 100 µM | > 100 µM | > 100 µM | > 100 µM | > 100 µM | > 100 µM |  | > 100 µM |  |  |  |  |  |  |  |  |  | 
COc1cc2c(cc1OC)C1CN3C(=O)CCC3C(O)C1c1cc(OC)c(OC)cc1-2 (stereo not given) | > 100 µM | > 100 µM | > 100 µM | > 100 µM | > 100 µM |  | > 100 µM | > 100 µM | > 100 µM | > 100 µM |  |  |  |  |  |  |  |  |  | 

— PubChem BioAssay (NCI)
